Assay results reported in patent US10428080B2, “TBK/IKK inhibitor compounds and uses thereof” (Merck Patent GmbH, priority 2015, dated 2019).
Counter-ions that a name gives are not always drawn. Like-named read-outs stand apart in the source and are kept apart here.

Columns and labels:
[1] = biological target: T1, IKKε (Homo sapiens, UniProt Q14164); assay: IKKe Biochemical Assay; conditions: read-out: IKKε IC50
T1 sequence (Q14164 1-716): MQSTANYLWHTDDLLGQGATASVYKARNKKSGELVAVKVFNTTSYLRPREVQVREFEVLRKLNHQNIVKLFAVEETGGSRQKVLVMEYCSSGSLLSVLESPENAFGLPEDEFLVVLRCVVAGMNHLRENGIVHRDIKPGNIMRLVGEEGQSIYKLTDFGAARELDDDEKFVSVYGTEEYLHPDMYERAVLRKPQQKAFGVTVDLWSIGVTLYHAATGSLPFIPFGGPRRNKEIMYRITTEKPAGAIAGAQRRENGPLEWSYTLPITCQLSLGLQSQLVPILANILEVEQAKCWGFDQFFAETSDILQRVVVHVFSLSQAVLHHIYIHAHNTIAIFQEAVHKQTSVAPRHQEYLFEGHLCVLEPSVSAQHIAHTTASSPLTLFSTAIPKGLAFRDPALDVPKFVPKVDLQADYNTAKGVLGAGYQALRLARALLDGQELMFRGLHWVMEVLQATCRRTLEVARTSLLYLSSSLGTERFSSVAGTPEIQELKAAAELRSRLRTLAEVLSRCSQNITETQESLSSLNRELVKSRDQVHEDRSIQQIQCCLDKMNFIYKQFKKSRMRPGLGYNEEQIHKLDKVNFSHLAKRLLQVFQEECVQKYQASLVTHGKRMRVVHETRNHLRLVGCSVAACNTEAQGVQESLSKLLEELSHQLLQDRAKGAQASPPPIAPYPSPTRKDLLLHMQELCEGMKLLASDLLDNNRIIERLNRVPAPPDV
Summary of the method: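 Recombinant IKKε and substrate were incubated with compound (10-point 1:4 series, top 30 uM final, 1% DMSO) for 90 min at 25° C, then stopped. Substrate-to-product conversion was read by LabChip microfluidic mobility shift; 10 uM staurosporine served as full-inhibition wells.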

[2] = biological target: T2, TBK1 (Homo sapiens, UniProt Q9UHD2); assay: TBK Biochemical Assay; conditions: read-out: TBK1 IC50
T2 sequence (Q9UHD2 1-729): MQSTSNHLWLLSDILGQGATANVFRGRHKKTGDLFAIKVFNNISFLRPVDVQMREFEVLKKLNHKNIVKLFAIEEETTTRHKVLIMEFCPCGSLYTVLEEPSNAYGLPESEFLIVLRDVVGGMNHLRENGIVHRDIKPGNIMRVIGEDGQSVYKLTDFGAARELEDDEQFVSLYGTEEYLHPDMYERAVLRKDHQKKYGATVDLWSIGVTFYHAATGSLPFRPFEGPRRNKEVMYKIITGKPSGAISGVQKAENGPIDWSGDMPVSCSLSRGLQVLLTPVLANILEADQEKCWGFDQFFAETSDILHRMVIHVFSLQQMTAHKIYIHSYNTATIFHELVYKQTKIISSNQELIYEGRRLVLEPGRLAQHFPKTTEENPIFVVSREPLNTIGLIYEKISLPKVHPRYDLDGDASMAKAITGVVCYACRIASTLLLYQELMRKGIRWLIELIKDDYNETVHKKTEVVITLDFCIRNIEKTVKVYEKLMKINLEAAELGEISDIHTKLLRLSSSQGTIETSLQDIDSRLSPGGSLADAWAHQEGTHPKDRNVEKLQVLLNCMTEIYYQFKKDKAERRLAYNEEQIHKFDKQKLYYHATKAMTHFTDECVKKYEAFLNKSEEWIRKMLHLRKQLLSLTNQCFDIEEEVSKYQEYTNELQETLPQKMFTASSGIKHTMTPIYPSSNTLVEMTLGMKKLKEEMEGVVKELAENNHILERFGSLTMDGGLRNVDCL
Summary of the method: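 TBK1 enzyme and substrate incubated with compounds (10-point 1:4 dilution, top 30 uM final, 1% DMSO) for 90 min at 25° C, then stopped. Substrate/product peaks read by microfluidic mobility-shift (Caliper LabChip); 10 uM staurosporine as full-inhibition control.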

[3] = test system: phosphorylation of the IRF-3 protein in MDA-MB-468 cells; assay: pIRF3 immunocytochemistry cell based assay; conditions: Homo sapiens
Summary of the method: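 MDA-MB-468 cells got compounds (10-point, 3-fold from 10 uM) for 1 h at 37 °C, then 10 ug/ml Poly(I:C) for 2 h. Fixed, permeabilized cells were immunostained for pIRF3 with AlexaFluor488 and counterstained with PI. % phosphorylation was read by laser scanning cytometry, and IC50 curves were fitted.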

[4] = MDA-MB-468 cells, Poly(I:C) stimulation, read-out: pIRF3 IC50

| IC50 [1] [nM] | IC50 [2] [nM] | IC50 [3, 4] [nM] | Compound | IC50 ([3]; MDA-MB-468, read-out: pIRF3 IC50) [nM] |
| --- | --- | --- | --- | --- |
| < 100 | < 100 | 100 to 1000 | COc1cc(C(=O)N2CC(O)C2)ccc1-c1cc2nccc(-c3ccc(OC4CCOCC4)c(C#N)c3)c2o1 [Compound 39, 5-{2-[4-(3-Hydroxy-azetidine-1-carbonyl)-2-methoxy-phenyl]-furo[3,2-b]pyridin-7-yl}-2-(tetrahydro-pyran-4-yloxy)-benzonitrile] | – |
| < 100 | < 100 | < 100 | COc1cc(C(=O)N(C)CCO)ncc1-c1cc2nccc(-c3ccc(N4CC[C@@H](F)C4)c(C#N)c3)c2o1 [Compound 380, 5-{7-[3-Cyano-4-((R)-3-fluoro-pyrrolidin-1-yl)-phenyl]-furo[3,2-b]pyridin-2-yl}-4-methoxy-pyridine-2-carboxylic acid (2-hydroxy-ethyl)-methyl-amide] | – |
| < 100 | < 100 | 100 to 1000 | COc1cc(C(=O)N(C)C)cnc1-c1cc2nccc(-c3ccc(OC4CCOCC4)c(C#N)n3)c2o1 [Compound 316, 6-[7-[6-cyano-5-(oxan-4-yloxy)pyridin-2-yl]furo[3,2-b]pyridin-2-yl]-5-methoxy-N,N-dimethylpyridine-3-carboxamide] | – |
| < 100 | < 100 | 100 to 1000 | COc1cc(C(=O)NC2(CO)COC2)ccc1-c1cc2nccc(-c3ccc(OC4CCOCC4)c(C#N)c3)c2o1 [Compound 51, 4-{7-[3-Cyano-4-(tetrahydro-pyran-4-yloxy)-phenyl]-furo[3,2-b]pyridin-2-yl}-N-(3-hydroxymethyl-oxetan-3-yl)-3-methoxy-benzamide] | – |
| < 100 | < 100 | < 100 | COc1cc(C(=O)N2CC[C@H](N(C)C)C2)cnc1-c1cc2nccc(-c3ccc(N4CC[C@@H](F)C4)c(C#N)c3)c2o1 [Compound 448, 5-{2-[5-((S)-3-Dimethylamino-pyrrolidine-1-carbonyl)-3-methoxy-pyridin-2-yl]-furo[3,2-b]pyridin-7-yl}-2-((R)-3-fluoro-pyrrolidin-1-yl)-benzonitrile] | – |
| < 100 | < 100 | < 100 | COc1cc(C(=O)N2CC(N(C)C)C2)ccc1-c1cc2nccc(-c3ccc(OC4CCOCC4)c(C#N)c3)c2o1 [Compound 24, 5-{2-[4-(3-Dimethylamino-azetidine-1-carbonyl)-2-methoxy-phenyl]-furo[3,2-b]pyridin-7-yl}-2-(tetrahydro-pyran-4-yloxy)-benzonitrile] | – |
| < 100 | < 100 | 100 to 1000 | COc1cc(C(=O)N(C)C)ccc1-c1cc2nccc(-c3ccc(NC4CCOCC4F)c(C#N)c3)c2o1 (stereo not drawn) [Compound 78] | – |
| < 100 | 100 to 1000 | 1000 to 5000 | COc1cc(-c2cc3nccc(-c4ccc(OC5CCOCC5)c(C#N)c4)c3o2)cnc1C(=O)N(C)C [Compound 393, 5-[7-[3-cyano-4-(oxan-4-yloxy)phenyl]furo[3,2-b]pyridin-2-yl]-3-methoxy-N,N-dimethylpyridine-2-carboxamide] | – |
| < 100 | < 100 | < 100 | COc1cc(C(=O)N2CC[C@@H](N(C)C)C2)ncc1-c1cc2nccc(-c3ccc(N4CC[C@@H](F)C4)c(C#N)c3)c2o1 [Compound 459, 5-[2-(6-[[(3R)-3-(dimethylamino)pyrrolidin-1-yl]carbonyl]-4-methoxypyridin-3-yl)furo[3,2-b]pyridin-7-yl]-2-[(3R)-3-fluoropyrrolidin-1-yl]benzonitrile] | – |
| < 100 | < 100 | 100 to 1000 | COc1cc(C(=O)N(C)C)ccc1-c1cc2nccc(-c3ccc(NCC4CCOC4)c(C#N)c3)c2o1 (stereo not drawn) [Compound 36] | – |
| < 100 | < 100 | 100 to 1000 | COc1cc(C(=O)N2CCCCN2)ccc1-c1cc2nccc(-c3ccc(OC4CCOCC4)c(C#N)c3)c2o1 [Compound 482, 5-{2-[2-Methoxy-4-(tetrahydro-pyridazine-1-carbonyl)-phenyl]-furo[3,2-b]pyridin-7-yl}-2-(tetrahydro-pyran-4-yloxy)-benzonitrile] | – |
| < 100 | < 100 | < 100 | COc1cc(C(=O)N(C)C)ncc1-c1cc2nccc(-c3ccc(NC4CCNC4)c(C#N)c3)c2o1 (stereo not drawn) [Compound 431, 5-(7-[3-cyano-4-[(pyrrolidin-3-yl)amino]phenyl]furo[3,2-b]pyridin-2-yl)-4-methoxy-N,N-dimethylpyridine-2-carboxamide] | – |
| < 100 | < 100 | 100 to 1000 | COc1cc(C(=O)N2CCN(C)CC2)ccc1-c1cc2nccc(-c3ccc(N4CC[C@H](F)C4)c(C#N)c3)c2o1 [Compound 16, 2-((S)-3-Fluoro-pyrrolidin-1-yl)-5-{2-[2-methoxy-4-(4-methyl-piperazine-1-carbonyl)-phenyl]-furo[3,2-b]pyridin-7-yl}-benzonitrile] | – |
| < 100 | < 100 | 100 to 1000 | COc1cc(C(=O)N2CCC3(CCO3)CC2)ccc1-c1cc2nccc(-c3ccc(OC4CCOCC4)c(C#N)c3)c2o1 [Compound 3, 5-{2-[2-Methoxy-4-(1-oxa-7-aza-spiro[3.5]nonane-7-carbonyl)-phenyl]-furo[3,2-b]pyridin-7-yl}-2-(tetrahydro-pyran-4-yloxy)-benzonitrile] | – |
| < 100 | < 100 | < 100 | COc1cc(C(=O)N2CC(N3CCCC3)C2)ccc1-c1cc2nccc(-c3ccc(OC4CCOCC4)c(C#N)c3)c2o1 [Compound 20, 5-{2-[2-Methoxy-4-(3-pyrrolidin-1-yl-azetidine-1-carbonyl)-phenyl]-furo[3,2-b]pyridin-7-yl}-2-(tetrahydro-pyran-4-yloxy)-benzonitrile] | – |
| < 100 | < 100 | 100 to 1000 | COc1cc(C(=O)N(C)C)ccc1-c1cc2nccc(-c3cnc(NC4CCOCC4)c(C#N)c3)c2o1 [Compound 324, 4-(7-(5-cyano-6-(tetrahydro-2H-pyran-4-ylamino)pyridin-3-yl)furo[3,2-b]pyridin-2-yl)-3-methoxy-N,N-dimethylbenzamide] | – |
| < 100 | < 100 | 100 to 1000 | COc1cc(C(=O)N(C)C)ccc1-c1cc2nccc(-c3ccc(O[C@@H]4CCNC[C@@H]4F)c(C#N)c3)c2o1 [Compound 153, 4-{7-[3-Cyano-4-((3S,4R)-3-fluoro-piperidin-4-yloxy)-phenyl]-furo[3,2-b]pyridin-2-yl}-3-methoxy-N,N-dimethyl-benzamide hydrochloride] | – |

| Compound | IC50 [1] [nM] | IC50 [2] [nM] | IC50 [3, 4] [nM] | IC50 ([3]; MDA-MB-468, read-out: pIRF3 IC50) [nM] |
| --- | --- | --- | --- | --- |
| COc1cc(C(=O)N(C)C)ncc1-c1cc2nccc(-c3ccc(NC4CCOCC4)c(C#N)c3)c2o1 [Compound 325, 5-(7-[3-cyano-4-[(oxan-4-yl)amino]phenyl]furo[3,2-b]pyridin-2-yl)-4-methoxy-N,N-dimethylpyridine-2-carboxamide] | < 100 | < 100 | – | 100 to 1000 |
| COc1cc(C(=O)N2C3COCC2CC(O)C3)cnc1-c1cc2nccc(-c3ccc(OC4CCOCC4)c(C#N)c3)c2o1 (stereo not drawn) [Compound 412, 5-[2-[5-([7-hydroxy-3-oxa-9-azabicyclo[3.3.1]nonan-9-yl]carbonyl)-3-methoxypyridin-2-yl]furo[3,2-b]pyridin-7-yl]-2-(oxan-4-yloxy)benzonitrile] | < 100 | < 100 | < 100 | – |
